Test results: PubChem BioAssay (NCI)
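Exposure lasted 48 hours, with cells grown in 96-well plates and compounds tested at five concentrations. TGI: total growth inhibition.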

Experiments:
Assay in all cases: growth of human tumour cells (NCI), 48 h
U251 CNS = tested on: U251 CNS
SK-MEL-2 melanoma = tested on: SK-MEL-2 melanoma
SW-620 colon = tested on: SW-620 colon
COLO 205 colon = tested on: COLO 205 colon
SNB-75 CNS = tested on: SNB-75 CNS
HT29 colon = tested on: HT29 colon
HOP-92 NSCLC = tested on: HOP-92 NSCLC
NCI-H23 lung = tested on: NCI-H23 lung
CCRF-CEM leukemia = tested on: CCRF-CEM leukemia
A549 NSCLC = tested on: A549 NSCLC
OVCAR-4 ovarian = tested on: OVCAR-4 ovarian
M19-MEL melanoma = tested on: M19-MEL melanoma
IGROV1 ovarian = tested on: IGROV1 ovarian
OVCAR-3 ovarian = tested on: OVCAR-3 ovarian
UACC-62 melanoma = tested on: UACC-62 melanoma
CAKI-1 renal = tested on: CAKI-1 renal
XF 498 CNS = tested on: XF 498 CNS
HL-60(TB) leukemia = tested on: HL-60(TB) leukemia
HCT-116 colon = tested on: HCT-116 colon
SK-MEL-5 melanoma = tested on: SK-MEL-5 melanoma
NCI-H522 lung = tested on: NCI-H522 lung
SN12C renal = tested on: SN12C renal
K-562 leukemia = tested on: K-562 leukemia
ACHN renal = tested on: ACHN renal
M14 melanoma = tested on: M14 melanoma
SF-539 CNS = tested on: SF-539 CNS
OVCAR-5 ovarian = tested on: OVCAR-5 ovarian
RPMI-8226 leukemia = tested on: RPMI-8226 leukemia
DMS 273 small cell lung = tested on: DMS 273 small cell lung
HCT-15 colon = tested on: HCT-15 colon
HOP-62 NSCLC = tested on: HOP-62 NSCLC
SF-295 CNS = tested on: SF-295 CNS
NCI-H460 lung = tested on: NCI-H460 lung
SF-268 CNS = tested on: SF-268 CNS
OVCAR-8 ovarian = tested on: OVCAR-8 ovarian
DMS 114 small cell lung = tested on: DMS 114 small cell lung
NCI-H226 lung = tested on: NCI-H226 lung
MOLT-4 leukemia = tested on: MOLT-4 leukemia
SK-OV-3 ovarian = tested on: SK-OV-3 ovarian
LXFL 529 NSCLC = tested on: LXFL 529 NSCLC
UO-31 renal = tested on: UO-31 renal
LOX IMVI melanoma = tested on: LOX IMVI melanoma
KM12 colon = tested on: KM12 colon
SR leukemia = tested on: SR leukemia
EKVX NSCLC = tested on: EKVX NSCLC
DLD-1 colon = tested on: DLD-1 colon
SNB-19 CNS = tested on: SNB-19 CNS
SK-MEL-28 melanoma = tested on: SK-MEL-28 melanoma
TK-10 renal = tested on: TK-10 renal
MALME-3M melanoma = tested on: MALME-3M melanoma
KM20L2 colon = tested on: KM20L2 colon
A498 renal = tested on: A498 renal
UACC-257 melanoma = tested on: UACC-257 melanoma
786-0 renal = tested on: 786-0 renal
SNB-78 CNS = tested on: SNB-78 CNS
HCC-2998 colon = tested on: HCC-2998 colon
RXF 393 renal = tested on: RXF 393 renal
HOP-18 NSCLC = tested on: HOP-18 NSCLC

SMILES: CC1(C)CCc2cc3c(cc2O1)OC(C)(C)CC3=O
- TGI (U251 CNS): > 100 µM
- TGI (SK-MEL-2 melanoma): > 100 µM
- TGI (SW-620 colon): > 100 µM
- TGI (COLO 205 colon): > 100 µM
- TGI (SNB-75 CNS): > 100 µM
- TGI (HT29 colon): > 100 µM
- TGI (HOP-92 NSCLC): 70.7 µM
- TGI (NCI-H23 lung): > 100 µM
- TGI (CCRF-CEM leukemia): > 100 µM
- TGI (A549 NSCLC): > 100 µM
- TGI (OVCAR-4 ovarian): > 100 µM
- TGI (M19-MEL melanoma): > 100 µM
- TGI (IGROV1 ovarian): > 100 µM
- TGI (OVCAR-3 ovarian): > 100 µM
- TGI (UACC-62 melanoma): > 100 µM
- TGI (CAKI-1 renal): > 100 µM
- TGI (XF 498 CNS): > 100 µM
- TGI (HL-60(TB) leukemia): > 100 µM
- TGI (HCT-116 colon): > 100 µM
- TGI (SK-MEL-5 melanoma): 52.2 µM
- TGI (NCI-H522 lung): > 100 µM
- TGI (SN12C renal): > 100 µM
- TGI (K-562 leukemia): > 100 µM
- TGI (ACHN renal): > 100 µM
- TGI (M14 melanoma): > 100 µM
- TGI (SF-539 CNS): > 100 µM
- TGI (OVCAR-5 ovarian): > 100 µM
- TGI (RPMI-8226 leukemia): > 100 µM
- TGI (DMS 273 small cell lung): > 100 µM
- TGI (HCT-15 colon): > 100 µM
- TGI (HOP-62 NSCLC): > 100 µM
- TGI (SF-295 CNS): > 100 µM
- TGI (NCI-H460 lung): > 100 µM
- TGI (SF-268 CNS): > 100 µM
- TGI (OVCAR-8 ovarian): > 100 µM
- TGI (DMS 114 small cell lung): > 100 µM
- TGI (NCI-H226 lung): > 100 µM
- TGI (MOLT-4 leukemia): > 100 µM
- TGI (SK-OV-3 ovarian): > 100 µM
- TGI (LXFL 529 NSCLC): > 100 µM
- TGI (UO-31 renal): > 100 µM
- TGI (LOX IMVI melanoma): > 100 µM
- TGI (KM12 colon): > 100 µM
- TGI (SR leukemia): > 100 µM
- TGI (EKVX NSCLC): > 100 µM
- TGI (DLD-1 colon): > 100 µM

SMILES: CCOc1ccccc1NC(=O)CSc1nnc(Cc2ccccc2)o1
- TGI (SNB-19 CNS): 48.7 µM
- TGI (U251 CNS): 41 µM
- TGI (SK-MEL-2 melanoma): 63 µM
- TGI (SW-620 colon): 37.2 µM
- TGI (COLO 205 colon): 36.5 µM
- TGI (SNB-75 CNS): > 100 µM
- TGI (HT29 colon): > 100 µM
- TGI (SK-MEL-28 melanoma): > 100 µM
- TGI (TK-10 renal): > 100 µM
- TGI (NCI-H23 lung): 52.1 µM
- TGI (CCRF-CEM leukemia): > 100 µM
- TGI (A549 NSCLC): > 100 µM
- TGI (OVCAR-4 ovarian): 63.5 µM
- TGI (M19-MEL melanoma): > 100 µM
- TGI (IGROV1 ovarian): > 100 µM
- TGI (OVCAR-3 ovarian): 32.7 µM
- TGI (UACC-62 melanoma): 52.6 µM
- TGI (CAKI-1 renal): 37.6 µM
- TGI (HL-60(TB) leukemia): > 100 µM
- TGI (HCT-116 colon): 84.5 µM
- TGI (SK-MEL-5 melanoma): 38.8 µM
- TGI (NCI-H522 lung): 40.7 µM
- TGI (SN12C renal): 64.9 µM
- TGI (MALME-3M melanoma): 33.8 µM
- TGI (K-562 leukemia): > 100 µM
- TGI (ACHN renal): 46.3 µM
- TGI (KM20L2 colon): > 100 µM
- TGI (M14 melanoma): 66.5 µM
- TGI (SF-539 CNS): 53.5 µM
- TGI (OVCAR-5 ovarian): > 100 µM
- TGI (RPMI-8226 leukemia): > 100 µM
- TGI (DMS 273 small cell lung): 60.2 µM
- TGI (A498 renal): > 100 µM
- TGI (HCT-15 colon): 35.1 µM
- TGI (HOP-62 NSCLC): > 100 µM
- TGI (SF-295 CNS): > 100 µM
- TGI (NCI-H460 lung): 44.8 µM
- TGI (SF-268 CNS): 64.4 µM
- TGI (OVCAR-8 ovarian): 54.8 µM
- TGI (DMS 114 small cell lung): 32.4 µM
- TGI (NCI-H226 lung): 57.5 µM
- TGI (MOLT-4 leukemia): 71.3 µM
- TGI (SK-OV-3 ovarian): > 100 µM
- TGI (LXFL 529 NSCLC): 32.1 µM
- TGI (UO-31 renal): 52 µM
- TGI (LOX IMVI melanoma): 40 µM
- TGI (UACC-257 melanoma): 98.6 µM
- TGI (KM12 colon): > 100 µM
- TGI (786-0 renal): 44.8 µM
- TGI (SNB-78 CNS): > 100 µM
- TGI (HCC-2998 colon): > 100 µM
- TGI (RXF 393 renal): 55.3 µM
- TGI (HOP-18 NSCLC): 54.7 µM
- TGI (DLD-1 colon): 55.4 µM
